Key:
[1] = target: T1, telomerase (Mus musculus, UniProt O70372); assay: Telomerase activity in short-term liquid culture, lineage-depleted bone marrow cells from mTERT heterozygous mice; type: cell-based; conditions: 1 uM, three days
T1 construct: endogenous in cells; host or cells: lineage-depleted bone marrow cells, wild-type mice
T1 sequence (O70372 1-1122): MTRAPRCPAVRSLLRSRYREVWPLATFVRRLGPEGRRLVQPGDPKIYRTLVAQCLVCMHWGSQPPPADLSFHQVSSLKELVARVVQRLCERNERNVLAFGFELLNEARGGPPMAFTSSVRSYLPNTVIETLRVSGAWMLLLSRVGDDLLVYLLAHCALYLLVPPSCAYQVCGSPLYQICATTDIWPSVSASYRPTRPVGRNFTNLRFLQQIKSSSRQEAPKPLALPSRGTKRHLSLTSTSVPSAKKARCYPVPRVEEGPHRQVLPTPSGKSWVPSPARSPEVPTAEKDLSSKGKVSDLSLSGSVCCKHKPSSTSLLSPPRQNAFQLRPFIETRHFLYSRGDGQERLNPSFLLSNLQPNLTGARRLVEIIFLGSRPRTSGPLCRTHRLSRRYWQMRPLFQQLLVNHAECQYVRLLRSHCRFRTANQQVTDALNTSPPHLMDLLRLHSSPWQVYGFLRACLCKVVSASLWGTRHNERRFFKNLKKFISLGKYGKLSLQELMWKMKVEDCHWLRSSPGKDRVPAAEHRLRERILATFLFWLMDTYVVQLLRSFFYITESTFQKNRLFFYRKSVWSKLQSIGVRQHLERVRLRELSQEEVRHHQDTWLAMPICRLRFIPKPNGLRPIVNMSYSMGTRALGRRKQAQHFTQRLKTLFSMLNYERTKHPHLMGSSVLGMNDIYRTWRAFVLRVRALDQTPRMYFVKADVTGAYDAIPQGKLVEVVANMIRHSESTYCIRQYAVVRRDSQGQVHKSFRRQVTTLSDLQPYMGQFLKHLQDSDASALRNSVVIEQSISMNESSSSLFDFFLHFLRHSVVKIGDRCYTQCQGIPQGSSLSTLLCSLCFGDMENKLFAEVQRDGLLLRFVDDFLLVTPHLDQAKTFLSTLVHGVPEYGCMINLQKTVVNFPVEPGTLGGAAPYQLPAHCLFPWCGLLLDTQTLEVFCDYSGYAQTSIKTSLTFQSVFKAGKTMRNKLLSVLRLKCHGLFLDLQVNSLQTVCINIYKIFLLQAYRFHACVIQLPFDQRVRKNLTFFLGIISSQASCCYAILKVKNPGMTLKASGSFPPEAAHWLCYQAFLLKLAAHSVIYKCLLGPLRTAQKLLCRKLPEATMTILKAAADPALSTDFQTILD
Method: Lineage-depleted bone marrow cells from mTERT heterozygous and wild type mice were grown in IMDM+15% FBS containing stem cell factor (Kitl), IL-3, and IL-11 for three days in the presence of compound 4 (1 uM, 100 nM, or 10 nM), vehicle (0.1% DMSO), or nothing. Telomerase activity in the wild-type cells increased by 40-50% when treated with 100 nM and 1 uM compound 4, relative to the vehicle-treated control.
Telomerase activity in the mTERT heterozygous cells increased by 50% when treated with 1 uM compound 4, relative to the vehicle-treated control.

[2] = Plasma levels and bioavailability in rats; conditions: male, Sprague Dawley, rat, in vivo, po, 10 mg/kg
Method: The plasma levels of a compound following a single intravenous and oral administration in carotid artery-cannulated male Sprague Dawley rats was determined. Plasma samples were collected and used to determine the plasma concentration of the compound and metabolites. In addition tissue samples, including whisker samples and PBMC cells were collected for telomerase activity analysis.
Carotid artery-cannulated male Sprague Dawley rats were divided into treatment groups according to Table 6. The rats were provided ad libitum SLAC-MO1 # YY080208 (Shanghai Laboratories Animal Center, Shanghai, China) throughout the in-life portion of the study with the exception of the overnight fasting period prior to oral dosing. Water was available ad libitum.
The compounds were dissolved in 2% EtOH/98% water to yield a final concentration of 2.5 mg/ml and 1 mg/ml for both intravenous and oral administration, respectively. The concentration of each compound was confirmed by HPLC analysis.
Body weights were taken on the day of dose administration. Dose volume was determined based on individual body weight taken on day of dosing.
Blood samples (approximately 250 μL) were collected via cannulae into tubes containing K2-EDTA anticoagulant and 1 mg/ml NaF at the various time points. Blood was stored on ice and then plasma separated via centrifugation (8000 rpm×6 minutes). The plasma was stored at […] until LC-MS/MS analysis.
Percentage of bioavailability was calculated.

[3] = system: lung fibroblasts; assay: Alamar Blue Proliferation Assay in lung fibroblasts; type: cell-based, human; conditions: 3 days
Method: Human SAECs or human fibroblasts were grown in the presence of different concentrations of compound 4 in a final concentration of 1% DMSO in the medium. After 3 days the cells were harvested and proliferation was measured using the Alamar Blue Proliferation Assay.

[4] = target: telomerase (Homo sapiens, UniProt O14746); assay: Keratinocyte cell/TRAP assay (HEKneo-P cells); type: cell-based; design: host or cells: HEKneo-P (pooled neonatal human epidermal keratinocytes); conditions: telomerase activation
telomerase (Homo sapiens, UniProt O14746), sequence (O14746 whole entry): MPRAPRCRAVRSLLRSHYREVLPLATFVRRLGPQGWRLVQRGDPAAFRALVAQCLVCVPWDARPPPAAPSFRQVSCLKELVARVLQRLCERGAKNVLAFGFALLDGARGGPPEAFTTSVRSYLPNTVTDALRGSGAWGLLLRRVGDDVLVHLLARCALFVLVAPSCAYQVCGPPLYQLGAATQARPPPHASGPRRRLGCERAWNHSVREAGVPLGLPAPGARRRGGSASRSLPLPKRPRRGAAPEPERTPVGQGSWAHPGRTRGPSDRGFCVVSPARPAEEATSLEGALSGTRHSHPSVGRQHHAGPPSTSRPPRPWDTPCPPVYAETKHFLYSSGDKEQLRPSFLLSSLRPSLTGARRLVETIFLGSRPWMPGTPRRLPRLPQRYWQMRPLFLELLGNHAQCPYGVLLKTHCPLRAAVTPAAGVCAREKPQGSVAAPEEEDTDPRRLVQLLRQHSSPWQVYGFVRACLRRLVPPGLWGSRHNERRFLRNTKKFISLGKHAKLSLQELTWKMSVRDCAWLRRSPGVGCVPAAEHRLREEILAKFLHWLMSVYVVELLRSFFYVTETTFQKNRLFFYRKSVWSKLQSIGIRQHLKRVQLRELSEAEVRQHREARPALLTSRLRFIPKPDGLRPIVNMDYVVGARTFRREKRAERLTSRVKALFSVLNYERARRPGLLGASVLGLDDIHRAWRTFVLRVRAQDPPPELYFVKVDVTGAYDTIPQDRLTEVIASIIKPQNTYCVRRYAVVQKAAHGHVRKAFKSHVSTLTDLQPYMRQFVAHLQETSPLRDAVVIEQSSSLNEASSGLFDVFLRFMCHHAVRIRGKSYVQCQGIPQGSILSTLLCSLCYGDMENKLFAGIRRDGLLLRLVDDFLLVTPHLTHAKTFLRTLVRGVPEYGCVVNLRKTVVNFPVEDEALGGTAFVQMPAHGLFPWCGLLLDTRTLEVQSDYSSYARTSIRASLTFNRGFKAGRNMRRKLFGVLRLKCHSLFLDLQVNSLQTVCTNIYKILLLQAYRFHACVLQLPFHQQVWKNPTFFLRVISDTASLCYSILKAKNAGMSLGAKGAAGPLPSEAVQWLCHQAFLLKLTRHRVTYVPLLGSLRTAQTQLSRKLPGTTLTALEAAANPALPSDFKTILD
From the text: Harley et al., U.S. Pat. […] Harley et al., U.S. Pat. […] Non-treatment control (NT) was also included. […]

[5] = system: Matrigel plugs; bone marrow stem/progenitor cells; assay: Administration to aging Tert (+/-) mice: hemoglobin and total RNA in Matrigel plugs, number of bone marrow stem/progenitor cells; type: in vivo, Tert (+/-) mice on a C57BL/6 background; conditions: 10 mg/kg/day PO (BID)
Method: Aging Tert (+/−) mice on a C57BL/6 background (8-9 months) were dosed with compound 4 at 10 mg/kg/day PO (BID) in 2% ethanol. Mice were pre-dosed for 1 day (Day −1). Matrigel™ was injected subcutaneously in the abdomen on Day 0, and plugs were harvested on Day 12.
One half of the plug was analyzed for telomerase activity and hemoglobin content, which is indicative of blood vessel formation (RBC cell buffer extraction, followed by M-PER extraction). The other half of the plug was processed for histology.
The Matrigel™ plug has a 1.2-fold increase in hemoglobin levels (p<0.2) n=15/group for mice treated with compound 4.
Total RNA, which reflects cell number, was increased 1.5-fold (p<0.1) n−15/group in Matrigel™ plugs after treatment with compound 4.
Bone marrow stem and progenitor cells were purified using lineage depletion magnetic sorting technology (Miltenyi MACS columns).
The number of purified bone marrow stem/progenitor cells increased 1.5-fold (p<0.1) n=6/group in mice treated with compound 4.

CC(C)C(N)C(=O)OC1CCC23CC24CCC2(C)C(C5(C)CCC(C(C)(C)O)O5)C(O)CC2(C)C4CC(O)C3C1(C)C (stereo not drawn) [Compound 4, 2-(L)-Amino-3-methyl-butyric acid 6α,16β-dihydroxy-17-[5-(1-hydroxy-1-methyl-ethyl)-2-methyl-tetrahydro-furan-2-yl]-4,4,13,14-tetramethyl-tetradecahydro-cyclopropa[9,10]cyclopenta[a]phenanthren-3β-yl ester]
Telomerase activity increase relative to the vehicle-treated control [1]: 50% | Bioavailability % F [2]: 36% | effect on short-term proliferation [3]: No effect | EC50 [4]: 6 to 22 nM | Total RNA (reflects cell number) increase in Matrigel plugs ([5]; p<0.1): 1.5 fold | increase in number of purified bone marrow stem/progenitor cells ([5]; p<0.1): 1.5 fold | increase in hemoglobin levels in the Matrigel plug ([5]; p<0.2): 1.2 fold
